Assay results from US20230416765A1, “AGROBACTERIUM RHIZOGENES AND METHODS OF TRANSFORMING CELLS” (priority 2020, published 2023).

Tested on: MSU440
Assay: Antibiotic susceptibility test on MSU440
Format: cell-based, Agrobacterium rhizogenes
From the text: The development of a disarmed strain of MSU440 relied on a selectable marker (an antibiotic resistance gene or the counter-selectable marker sacB). Antibiotic susceptibility test on MSU440 were formed with the antibiotics outlined in Table 5.

[1] = MSU440 response to antibiotic at 50 ug/mL

CC1(C)S[C@@H]2[C@H](NC(=O)C(C(=O)O)c3ccccc3)C(=O)N2[C@H]1C(=O)O (some centres unmarked) [carbenicillin]
Resistant or susceptible (MSU440 response to antibiotic at 100 ug/mL): susceptible

O=C(N[C@H](CO)[C@H](O)c1ccc([N+](=O)[O-])cc1)C(Cl)Cl [chloramphenicol]
Resistant or susceptible (MSU440 response to antibiotic at 30 ug/mL): resistant

CN[C@@H]1[C@H](O)[C@H](NC)[C@H]2O[C@@]3(O)C(=O)C[C@@H](C)O[C@H]3O[C@@H]2[C@H]1O [spectinomycin]
Resistant or susceptible [1]: resistant

[H]/N=C(/N)N[C@H]1[C@H](O)[C@@H](O)[C@H](O[C@@H]2O[C@@H](C)[C@](O)(C=O)[C@H]2O[C@@H]2O[C@@H](CO)[C@H](O)[C@@H](O)[C@@H]2NC)[C@@H](N/C(N)=N\[H])[C@@H]1O [streptomycin]
Resistant or susceptible [1]: resistant

gentamicin
Resistant or susceptible (MSU440 response to antibiotic at 35 ug/mL): susceptible
